Experimental data published in patent US20260356957A1, “METHODS FOR TREATMENT OF NON-SMALL CELL LUNG CANCER (NSCLC)” (Janssen Biotech, Inc., priority 2023, published 2026).
“And” between values parts separate entries of the source, which are not always exact repeats. Identical values can stand only once. “Also recorded” adds a separate entry of the source.

What was measured:
Format in all cases: in vivo, human
[1] = test system: EGFR-mutated NSCLC with brain metastasis; experiment: MARIPOSA Phase 3, intracranial PFS by BICR in participants with history of brain metastasis
Source text: • 1. […] Intracranial PFS [Time Frame: Up to approximately 42 months]. […] Incidence and Severity of Adverse Events (AEs) [Time Frame: Up to approximately 60 months]. Incidence and severity of treatment emergent adverse events (TEAEs) will be reported. Any adverse event occurring at or after the initial administration of study treatment through the day of last dose plus 30 days, or until the start of subsequent anticancer therapy (if earlier), is considered to be treatment emergent. • 8. Number of Participants with Clinical Laboratory Abnormalities [Time Frame: Up to approximately 60 months]. Number of participants with clinical laboratory abnormalities (serum chemistry, hematology, blood coagulation, and urine samples) will be reported. • 9. Number of Participants with Vital Signs Abnormalities [Time Frame: Up to approximately 60 months]. Number of participants with vital signs abnormalities (temperature, heart rate, respiratory rate, oxygen saturation, blood pressure) will be reported. • 10. Number of Participants with Physical Examination Abnormalities [Time Frame: Up to approximately 60 months]. Number of participants with physical examination abnormalities will be reported. • 11. […] Number of Participants with Anti-Amivantamab Antibodies [Time Frame: Up to approximately 42 months]. […] Change from Baseline in Non-Small Cell Lung Cancer-Symptom Assessment Questionnaire (NCSLC-SAQ) [Time Frame: Baseline Up to approximately 42 months]. The NSCLC-SAQ contains 7 items that assess cough, pain, dyspnea, fatigue, and poor appetite over a 7-day recall period. Each multi-item scale and individual item will be summarized using count and percent by visit. • 15. Change from Baseline in European Organization of Research and Treatment of Cancer Quality of Life Questionnaire Core 30 (EORTC-QLQ-C30) [Time Frame: Baseline Up to approximately 42 months]. EORTC-QLQ-C30 is a core 30-item questionnaire for evaluating the health-related quality of life (HRQOL) of participants participating in cancer clinical studies. • 16.

[2] = test system: EGFR-mutated locally advanced or metastatic NSCLC; experiment: MARIPOSA Phase 3, overall survival; settings: for Median overall survival (95% CI): interim analysis
[3] = test system: EGFR-mutated locally advanced or metastatic NSCLC; experiment: MARIPOSA Phase 3, extracranial progression-free survival by BICR; settings: CNS-only first progression censored
Source text: The efficacy population included all patients who had undergone randomization. Extracranial progression-free survival was defined as time from randomization to disease progression (detected by extracranial scans) or death. If first progression was detected solely in the CNS, these patients were censored at the time of CNS disease progression. The dashed lines indicate the median extracranial progression-free survival in the two groups; tick marks indicate censoring of data. 95% CI widths have not been adjusted for multiplicity and cannot be used to infer definitive treatment effects. CNS denotes central nervous system. Since MARIPOSA performed serial brain imaging, a sensitivity analysis was conducted censoring CNS-only, first progression events.

Ex19del and L858R ctDNA = experiment: MARIPOSA Phase 3, EGFRm ctDNA in blood by ddPCR; settings: patients with matched samples
Procedure: Detection of circulating tumor (ctDNA) and co-mutations were analyzed by next-generation sequencing (NGS) of blood at baseline.
Detection of ctDNA and co-mutations were analyzed by next-generation sequencing (NGS) of blood at baseline. Detection and clearance of Ex19del and L858R ctDNA in blood were analyzed with ddPCR at baseline and C3D1.
Detectable EGFRm ctDNA at Baseline and On Treatment: Detection and clearance of Ex19del and L858R ctDNA in the blood were analyzed by ddPCR (Ex19del or L858R by Biodesix ddPCR).

[4] = test system: EGFR-mutated locally advanced or metastatic NSCLC; experiment: MARIPOSA Phase 3, progression-free survival by BICR; settings: for Median progression-free survival (95% CI): median follow-up 22.0 months
Source text: The primary endpoint of the study is PFS (using RECIST v1.1 guidelines) as assessed by blinded independent central review (BICR).

[5] = test system: EGFR-mutated locally advanced or metastatic NSCLC; experiment: MARIPOSA Phase 3, time to symptomatic progression (TTSP)
[6] = test system: EGFR-mutated locally advanced or metastatic NSCLC; experiment: MARIPOSA Phase 3, time to subsequent therapy (TTST) and subsequent therapy
[7] = test system: EGFR-mutated locally advanced or metastatic NSCLC; experiment: MARIPOSA Phase 3, objective response by BICR (RECIST v1.1)

In the case of C=CC(=O)Nc1cc(Nc2nccc(-c3cn(C)c4ccccc34)n2)c(OC)cc1N(C)CCN(C)C [Osimertinib], the “Event (intracranial PFS)” value [1] is reported as 75 (43.6%) (%), the “Intracranial PFS 6-month event-free rate (95% CI)” value [1] is reported as 0.88 (0.82, 0.92) and the “Intracranial PFS time to event, 75th percentile (95% CI)” value ([1]; NE = not estimable) is reported as “NE (NE, NE)”. The “Censored (OS)” value ([2]; Full Analysis Set) was 312 (72.7%) (%), the “Event (OS)” value ([2]; Full Analysis Set) was 117 (27.3%) (%) and the “OS 6-month event-free rate (95% CI)” value ([2]; Full Analysis Set) was 0.96 (0.93, 0.97). For the same compound, the “OS 12-month event-free rate (95% CI)” value ([2]; Full Analysis Set) was 0.88 (0.85, 0.91), the “OS 18-month event-free rate (95% CI)” value ([2]; Full Analysis Set) was 0.79 (0.75, 0.83) and the “OS 30-month event-free rate (95% CI)” value ([2]; Full Analysis Set) was 0.62 (0.52, 0.70). For the same compound, the “OS time to event, 25th percentile (95% CI)” value ([2]; Full Analysis Set) was 20.30 (18.00, 23.59) months, the “OS time to event, 75th percentile (95% CI)” value ([2]; NE = not estimable) was “NE (NE, NE)” and the “Overall survival, Patients (95% CI) at 12 months” value ([2]; efficacy population) was 88 (85-91) %. For the same compound, the “Overall survival, Patients (95% CI) at 18 months” value ([2]; efficacy population) was 79 (75-83) %, the “Overall survival, Patients (95% CI) at 24 months” value ([2]; efficacy population) was 69 (64-74) % and the “Median overall survival (95% CI)” value ([2]; NE = not estimable) was “NE (NE, NE)”. The “Median overall survival (95% CI)” value ([2]; NE = not estimable, listed as osimertinib) was “not reached; also recorded: could not be estimated”, the “Median extracranial progression-free survival (95% CI)” value [3] was 18.4 months and the “Detectable EGFRm ctDNA at C3D1 (Week 9)” value (Ex19del and L858R ctDNA) was 15%. For the same compound, the “PFS 6-month event-free rate (95% CI)” value [4] was 0.85 (0.83, 0.88), the “PFS 18-month event-free rate (95% CI)” value [4] was 0.48 (0.43, 0.53) and the “PFS 24-month event-free rate (95% CI)” value [4] was 0.34 (0.26, 0.39). For the same compound, the “PFS 30-month event-free rate (95% CI)” value [4] was 0.30 (0.24, 0.36), the “Censored (PFS)” value ([4]; Full Analysis Set) was 177 (41.3%) (%) and the “Event (PFS)” value ([4]; Full Analysis Set) was 252 (58.7%) (%). For the same compound, the “PFS time to event, 25th percentile (95% CI)” value ([4]; Full Analysis Set) was 9.23 (7.49, 10.94) months, the “PFS time to event, 75th percentile (95% CI)” value ([4]; Full Analysis Set) was “NE (27.50, NE)” and the “Progression-free survival, Patients (95% CI) at 12 months” value ([4]; efficacy population) was 65 (60-69) %. The “Progression-free survival, Patients (95% CI) at 18 months” value ([4]; efficacy population) was 48 (43-53) %, the “Progression-free survival, Patients (95% CI) at 24 months” value ([4]; efficacy population) was 34 (28-39) % and the “Median progression-free survival (95% CI)” value [4] was 16.59 (14.78, 18.46) months. For the same compound, the “Median progression-free survival (95% CI)” value ([4]; listed as osimertinib) was 16.6 months and 16.59 months, the “Censored (TTSP)” value ([5]; Full Analysis Set) was 202 (61.1%) (%) and the “Death without Symptomatic PD” value ([5]; Full Analysis Set) was 49 (11.4%) (%). For the same compound, the “Event (TTSP)” value ([5]; Full Analysis Set) was 167 (38.9%) (%), the “Symptomatic PD” value ([5]; Full Analysis Set) was 118 (27.5%) (%) and the “TTSP 6-month event-free rate (95% CI)” value ([5]; Full Analysis Set) was 0.90 (0.87, 0.93). For the same compound, the “TTSP 12-month event-free rate (95% CI)” value ([5]; Full Analysis Set) was 0.79 (0.74, 0.82), the “TTSP 18-month event-free rate (95% CI)” value ([5]; Full Analysis Set) was 0.67 (0.63, 0.72) and the “TTSP 24-month event-free rate (95% CI)” value ([5]; Full Analysis Set) was 0.59 (0.53, 0.64). The “TTSP 30-month event-free rate (95% CI)” value ([5]; Full Analysis Set) was 0.49 (0.40, 0.58), the “TTSP Median (95% CI)” value ([5]; NE = not estimable) was 29.31 (29.31, NE) months and the “TTSP time to event, 75th percentile (95% CI)” value ([5]; NE = not estimable) was “NE (NE, NE)”. For the same compound, the “Censored (TTST)” value ([6]; Full Analysis Set) was 232 (54.1%) (%), the “Event (TTST)” value ([6]; Full Analysis Set) was 197 (45.9%) (%) and the “TTST 6-month event-free rate (95% CI)” value ([6]; Full Analysis Set) was 0.91 (0.88, 0.93). The “TTST 12-month event-free rate (95% CI)” value ([6]; Full Analysis Set) was 0.77 (0.73, 0.81), the “TTST 18-month event-free rate (95% CI)” value ([6]; Full Analysis Set) was 0.63 (0.58, 0.67) and the “TTST Median (95% CI)” value ([6]; Full Analysis Set) was 24.08 (22.01, 28.98) months. The “TTST time to event, 25th percentile (95% CI)” value ([6]; Full Analysis Set) was 13.11 (10.58, 14.36) months, the “TTST time to event, 75th percentile (95% CI)” value ([6]; NE = not estimable) was “NE (NE, NE)” and the “Best overall response: Not evaluable” value [7] was 11 (3) no. (%). The “Best overall response: Progressive disease” value [7] was 11 (3) no. (%), the “Best overall response: Stable disease” value [7] was 42 (10) no. (%) and the “Best overall response: Complete response” value ([7]; all responders) was 15 (4) no. (%). The “Best overall response: Partial response” value ([7]; all responders) was 335 (81) no. (%), the “Complete Response (CR)” value ([7]; best overall response) was 15 (3.0%) (%) and the “Not Evaluable (NE)” value ([7]; best overall response) was 11 (2.7%) (%). The “Partial Response (PR)” value ([7]; best overall response) was 335 (80.9%) (%), the “Progressive Disease (PD)” value ([7]; best overall response) was 11 (2.7%) (%) and the “Objective response rate, Patients (95% CI), all responders” value ([7]; measurable disease at baseline) was 85 (81-88) %. The “Objective response, Patients (95% CI) including only confirmed responders” value ([7]; measurable disease at baseline) was 76 (71-80) %, the “Objective response rate (CR + PR)” value ([7]; measurable disease at baseline, RECIST v1.1) was 350 (84.5%) (%) and the “Objective response rate, Patients (95% CI), all responders” value ([7]; measurable disease at baseline, listed as osimertinib) was 85%.
